Holding throughout (assay type): cell-based
Series [1] concerns Coxsackie A21 virus (Cox A21). Nature of the series: Tissue culture antiviral test (HeLa cells), Cox A21. As to conditions: 48 and 72 hours post-treatment, read-out: Lowest concentration necessary to cause a 50 percent reduction in cytopathic effect, Cox A21. The protocol:
(§1) Monolayered HeLa cells in 16 millimeter (mm) tissue culture dishes were treated with 1 ml of culture medium (Eagles medium supplemented with fetal calf serum) containing subject compound at an appropriate concentration or containing no compound at all. Culture media such as those described herein are more fully described in standard texts, as for example, Kuchler's Biochemical Methods in Cell Culture and Virology, Dowden, Hutchinson and Ross, Inc., Stroudsberg, PA (1977). Following treatment, cells were challenged with 0.05 ml of rhinovirus type 1A (RV-1A), rhinovirus type 2 (RV-2) or Coxsackie A21 virus (Cox A21) in culture medium. Some of the compounds were also tested against rhinovirus type 5 (RV-5), rhinovirus type 8 (RV-8) or rhinovirus type 64 (RV-64). Cell controls received no viruses.
(§2) ^xx Lowest concentration of the compound (μg/ml) necessary to caus
(§3) a 50 percent reduction in cytopathic effect.

Series [2] in a line: Cytotoxicity to HeLa cells in tissue culture testing. The conditions noted are these: human, concentration found to be toxic to the cell, observed at 48 and 72 hours, read-out: Cytotoxicity. The protocol: as §1
^x Cytotoxicity figures represent the concentration of the compound,
micrograms/milliliter (μg/ml) found to be toxic to the cell.
means "approximately "; "<<" "considerably less than " and "G.I." means

Another series concerns rhinovirus type 2 (RV-2). Nature of the series: Tissue culture antiviral test (HeLa cells), RV-2. The conditions noted are these: Enterovirus, 48 and 72 hours post-treatment, read-out: Lowest concentration necessary to cause a 50 percent reduction in cytopathic effect, RV-2. The protocol:
as §1, §2, §3
(Damage to the host cells serves as the signal in cytopathic effect assays.)

A further series relates to rhinovirus type 5 (RV-5). Nature of the series: Tissue culture antiviral test (HeLa cells), RV-5. As to conditions: Enterovirus, 48 and 72 hours post-treatment, read-out: Lowest concentration necessary to cause a 50 percent reduction in cytopathic effect, RV-5. How it is done:
as §1, §2, §3

Series [3] concerns rhinovirus type 1A (RV-1A). Nature of the series: Tissue culture antiviral test (HeLa cells), RV-1A. The conditions noted are these: Enterovirus, 48 and 72 hours post-treatment, read-out: Lowest concentration necessary to cause a 50 percent reduction in cytopathic effect, RV-1A. The protocol: as §1, §2, §3
For series [4], the system named is rhinovirus type 64 (RV-64). Nature of the series: Tissue culture antiviral test (HeLa cells), RV-64. The conditions noted are these: Enterovirus, 48 and 72 hours post-treatment, read-out: Lowest concentration necessary to cause a 50 percent reduction in cytopathic effect, RV-64. The protocol:
as §1, §2, §3

Another series concerns rhinovirus type 8 (RV-8). Kind of series: Tissue culture antiviral test (HeLa cells), RV-8. As to conditions: Enterovirus, 48 and 72 hours post-treatment, read-out: Lowest concentration necessary to cause a 50 percent reduction in cytopathic effect, RV-8. The protocol: as §1, §2, §3

Converted amounts (≈) assume the structure as drawn.

For the compound `CS(=O)(=O)c1ccc(Oc2ccc(Cc3ccccc3)cc2)cc1` [Example 20, 1-(4-(Methylsulfonyl)phenoxy)-4-(phenylmethyl)benzene], the EC50 stood at 2.5 µg/mL (≈ 7.39 µM) in series [1]; 1.25 µg/mL (≈ 3.69 µM) in the series on rhinovirus type 2 (RV-2); 5 µg/mL (≈ 14.8 µM) in the series with rhinovirus type 5 (RV-5); 2.5 µg/mL (≈ 7.39 µM) in series [3]; 2.5 µg/mL (≈ 7.39 µM) in series [4]; 5 µg/mL (≈ 14.8 µM) in the series with rhinovirus type 8 (RV-8). In addition, the MCC in series [2] was 5 µg/mL.
`CS(=O)(=O)c1ccc(Oc2ccc(OCC#N)cc2)cc1` [Example 23, (4-(4-(Methylsulfonyl)phenoxy)phenoxy)acetonitrile]: the EC50 in series [1] worked out at 2.5 µg/mL (≈ 8.24 µM); with rhinovirus type 2 (RV-2), 5 µg/mL (≈ 16.5 µM); in the series with rhinovirus type 5 (RV-5), 5 µg/mL (≈ 16.5 µM); in series [3], 2.5 µg/mL (≈ 8.24 µM); in series [4] it was 10 µg/mL (≈ 33 µM); in the series with rhinovirus type 8 (RV-8), 5 µg/mL (≈ 16.5 µM). Moreover, in series [2], the MCC is 10 µg/mL.
`CCN(CC)S(=O)(=O)c1ccc(Oc2ccc(S(=O)(=O)C(F)(F)F)cc2)cc1` [Example 26, N,N-Diethyl-4-(4-((trifluoromethyl)sulfonyl)phenoxy)benzenesulfonamide]: the EC50 was not above 0.3 µg/mL in series [1]; 0.3 µg/mL (≈ 0.686 µM) in the series with rhinovirus type 2 (RV-2); 0.625 µg/mL (≈ 1.43 µM) in the series on rhinovirus type 5 (RV-5); 0.312 µg/mL (≈ 0.714 µM) in series [3]; 0.625 µg/mL (≈ 1.43 µM) in series [4]; not above 0.312 µg/mL in the series on rhinovirus type 8 (RV-8). Moreover, the MCC in series [2] came out at 0.625 µg/mL.

Source of the values: US4505929A, “Sulfur-substituted diphenyl ethers having antiviral activity” (The Dow Chemical Company, priority 1982, dated 1985).
